Assay results: PubChem BioAssay (NCI)
“And” between values parts separate entries of the source, which are not always exact repeats. Equal entries are not always repeated.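 Growth conditions: 96-well plates. Treatment: test compound, 48 hours, 5 concentrations. Analysis: linear interpolation between bracketing concentrations; unreached endpoints set to highest concentration. Abbreviation: GI50, concentration required for 50% inhibition of growth. Definition used: TGI = concentration required for complete inhibition of growth.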 The source made the active and inactive calls. Cut-off read from the data, not from the text of the source: active = GI50 below about 0.43 µM; inactive = the rest.

Assays:
Assay in all cases: NCI tumour cell line growth inhibition, 48 h
[1] = tested on: DLD-1 colon
[2] = tested on: P388 leukemia
[3] = tested on: KM20L2 colon
[4] = tested on: DMS 273 small cell lung
[5] = tested on: SNB-78 CNS
[6] = tested on: XF 498 CNS
[7] = tested on: RXF-631 renal
[8] = tested on: HOP-18 NSCLC
[9] = tested on: LXFL 529 NSCLC
[10] = tested on: MDA-N

Compound	TGI [1] [µM]	TGI [4] [µM]	TGI [5]	TGI [6] [µM]	TGI [3] [µM]	TGI [7] [µM]	TGI [8] [µM]	TGI [9] [µM]	TGI [10]	further results
CC1OC(O[C@@H]2C=C3CC[C@@H]4[C@H](CC[C@]5(C)[C@@H](c6ccc(=O)oc6)CC[C@]45O)[C@@]3(C)CC2)C(O)C(O)C1O (stereo partly specified)	0.003	0.003	0.003 µM							GI50 [1]: 0.000621 µM; TGI [2]: > 74.8 µM; GI50 [3]: 0.00131 µM; GI50 [4]: 0.000892 µM; GI50 [5]: 0.000596 µM
CCNC(=O)O/N=C1\CCC2[C@@H]3CC=C4C[C@@H](OC(=O)NCC)CC[C@]4(C)C3CC[C@]12C (stereo partly specified)	> 100	3.54		0.911	12.7	17.3	6.73	2.2		
CC(=O)OC1(C(C)=O)CC2(c3ccccc3)OC1(c1ccccc1)c1ccccc12 (stereo unspecified)	> 100	22.2	> 100 µM	33.3	> 100	> 100	> 100	> 100		
COc1oc(C2C/C(=C/C(C)=C/C(C)=C/C(C)=C/c3ccc([N+](=O)[O-])cc3)CO2)c(C)c(=O)c1C (stereo unspecified)									23.9 µM	
O=C1c2c(c3c4ccccc4n(CC4CO4)c3c3[nH]c4ccccc4c23)C(=O)N1Cc1ccccc1 (stereo unspecified)		> 100	> 100 µM	> 100		> 100		> 100		
COc1cc2c3c(c4cc(OC)c(OC)cc4c2cc1OC)CN1CCC[C@H]1C3									6.57 µM and 0.776 µM	GI50 [10]: 0.0817 µM and < 0.0129 µM
N#Cc1c(N)oc2cc3c(C#N)c(N)oc3cc12	> 100	> 100			> 100	> 100	> 100	> 100		
CO[C@H]1C[C@H](O[C@H]2CC[C@@]3(C)[C@H](CC[C@@H]4[C@@H]3CC[C@]3(C)[C@@H](C5=CC(=O)OC5)CC[C@]43O)C2)O[C@H](C)[C@H]1O									0.114 µM	
Nc1nc(N)c(CCCCc2ccc([N+](=O)[O-])cc2)c(N)n1	> 100	> 100	> 100 µM	> 100	> 100		> 100	> 100	> 100 µM	
O=C(Nc1c[nH]c(=O)[nH]c1=O)Oc1ccccc1									> 100 µM	
Cc1ccccc1NC(=O)C(=O)C(C(=O)c1ccccc1F)C1OC(=O)c2ccccc21 (stereo unspecified)	57.7	64.5	80.8 µM		> 100	73.6	79.4	75.3		
C(=C\c1ccc2ccccc2c1Nc1ccccc1)/c1ccccc1	> 100	> 100	> 91.8 µM	40.6	> 100		> 88.1	> 100		
O=C1N(c2ccc(Cl)cc2)C(=O)C2(SC=NN2Cc2ccccc2)N1c1ccc(Cl)cc1 (stereo unspecified)	> 100		> 100 µM	94.4	> 100	> 100	> 100	> 100		
NC1(C(=O)O)CCC(C(=O)O)CC1 (stereo unspecified)	> 100	> 100	> 100 µM	> 100	> 100	> 100	> 100	> 100		
C#Cc1c(C)c(/C=C/C(C)=C\C(=O)OC)n(C)c1C	> 100	> 100	> 100 µM	> 100	> 100		> 100	> 100		
COc1ccc2c(c1O)[C@@]13CCCC=C1[C@@H](C2)N(C)CC3									> 100 µM	
N/N=C1/C(=O)N(c2ccc(Cl)cc2)C(=O)C(=O)C1c1nc2ccccc2s1 (stereo unspecified)	> 100	> 100	> 100 µM	> 100	> 100		> 100	> 100		
CCOC(=O)Nc1cc2c(c(N)n1)N=C(c1ccc(Cl)cc1Cl)CN2									18.6 µM	
N#Cc1sc2nc3c(c(-c4ccccc4)c2c1N)CCCC3		> 100	> 100 µM	92.2				> 100		
COc1cc(O)c(C(=O)C2Cc3ccccc32)c(OC)c1 (stereo unspecified)	> 100	> 100	> 100 µM		> 100	> 100	> 100	> 100		
COc1cc2c(cc1O)CCN[C@@]21CS[C@H]2c3c(OC(C)=O)c(C)c4c(c3C(COC1=O)N1C2C2NC(Cc3cc(C)c(OC)c(O)c32)[C@@H]1O)OCO4 (stereo partly specified)			932 ng/mL							GI50 [1]: 0.000365 ng/mL and 4.5 ng/mL; outcome [7]: inactive; GI50 [4]: 4.5 ng/mL; outcome [8]: inactive; outcome [9]: inactive; GI50 [5]: 0.00037 ng/mL and 4.5 ng/mL
COc1cc(C2c3cc4c(cc3[C@@H](Nc3ccc(F)cc3)C3COC(=O)[C@H]23)OCO4)cc(OC)c1O (stereo partly specified)	28.5	6.46	99.2 µM	18.2	19.8		46.8	46.6	> 100 µM	TGI [2]: 1.61 µM; GI50 [6]: 0.718 µM; GI50 [4]: 0.403 µM
